target: T1, KRAS G12C 1-169, his-tagged protein, GDP-loaded (Homo sapiens, UniProt P01116, G12C); assay: Biochemical assay: covalent modification of KRAS G12C measured by mass spectrometry (RapidFire/TOF or Q-Exactive); format: binding; conditions: tested at 32 μM
T1 construct: KRAS G12C 1-169, his-tagged protein, GDP-loaded
Method: Test compounds were prepared as 10 mM stock solutions in DMSO (Fisher cat. #BP-231-100). KRAS G12C 1-169, his-tagged protein, GDP-loaded is diluted to 2 μM or 0.5 μM in buffer (20 mM Hepes, 150 mM NaCl, 1 mM MgCl2). Compounds were tested for activity as follows:
Compounds were diluted to 50× final test concentration in DMSO in 96-well storage plates. Compound stock solutions were vortexed before use and observed cwerefully for any sign of precipitation. Dilutions were as follow: • For 32 μM final compound concentration, compounds were diluted to 1600 μM (3 μL 10 mM compound stock +15.75 μL DMSO and mixed well by pipetting. • For 8 μM final compound concentration, compounds were diluted to 400 μM (2 μL 10 mM compound stock +48 μL DMSO) and mixed well by pipetting. 49 μL of the stock protein solution was added to each well of a 96-well PCR plate (Fisher cat#1423027). 1 μl of the diluted 50× compounds were added to appropriate wells in the PCR plate using 12-channel pipettor. Reactions were mixed carefully and thoroughly by pipetting up/down with a 200 μL multi-channel pipettor. The plate was sealed well with aluminum plate seal, and protein and compound were allowed to react for a desired amount of time. 5 μL of 2% formic acid (Fisher cat#A117) in de-ionized H2O was then added to each well followed by mixing with a pipette to quench the reaction. The plate was then resealed with aluminum seal and stored frozen on dry ice until analyzed as described below.
The above described assays were analyzed by mass spectrometry according to one of the following two procedures:
The MS instrument was set to positive polarity, 2 GHz resolution, and low mass (1700) mode and allowed to equilibrate for 30 minutes. The instrument was then calibrated, switched to acquisition mode and the appropriate method loaded.
After another 30 minute equilibration time, a blank batch (i.e., buffer) was run to ensure equipment is operating properly. The samples were thawed at 37° C. for 10 minutes, briefly centrifuged, and transfered to the bench top. Wells A1 and H12 were spiked with 1 μL 500 μM internal standard peptide, and the plates centrifuged at 2000×g for 5 minutes. The method was then run and masses of each individual well recorded.
The masses (for which integration data is desired) for each well were pasted into the platemap and exported from the analysis. Masses for the internal standards were exported as well. The data at 50 ppm was extracted for the +19 charge state, and identity of well A1 was assigned using the internal standard spike and integrated. Peak data was exported as a TOF list and the above steps were repeated individually, for the +20, +21, +22, +23, +24, and +25 charge states.
The masses and peak intensities of KRAS G12C protein species were measured using a Dionex RSLCnano system (Thermo Scientific) connected to a Q Exactive Plus mass spectrometer (Thermo Scientific).
20 μL of sample was loaded onto a Aeris™ 3.6 μm WIDEPORE C4 200 Å, LC Column 50×2.1 mm column maintained at 40° C. at a flow rate of 600 μL/min with 80% Solvent A (0.1% formic acid in H2O) and 20% Solvent B (0.1% formic acid in acetonitrile). The liquid chromatography conditions were 20% solvent B for 1 minute, 20% to 60% solvent B for 1.5 minutes, 60% to 90% solvent for 0.5 minute, 90% solvent B for 0.2 minute, 90% to 20% solvent B for 0.2 minute, and then equilibrated for 1.6 minute before the following sample injection. The flow rate was maintained at 600 μL/min throughout the sample analysis.
The mass spectrometer was operated in profile mode at a resolution of 17500, 5 microscans, using 50 msec max injection time and an AGC target of 1×10^6, and a full mass range from 800-1850 m/z was recorded. The intact protein mode was applied for optimal ion transfer and maximum sensitivity. The ionization method was electrospray ionization, which used a spray voltage of 4 kV, sheath gas flow set to 50 AU, auxiliary gas flow set to 10 AU and sweep gas flow set to 1 AU. […]

SMILES	Bind %
Cc1ccc2[nH]ncc2c1-c1cccc(N2CCC3(CN(C(=O)/C=C/CN(C)C)C3)C2)c1C#N [Compound I-36, (E)-2-(2-(4-(dimethylamino)but-2-enoyl)-2,6-diazaspiro[3.4]octan-6-yl)-6-(5-methyl-1H-indazol-4-yl)benzonitrile]	+ (+ indicates binding activity greater than 0% and up to 50%)
C=CC(=O)N1CC2(CCN(c3cc(N4CCC5(CCN(C)C5)C4)cc(-c4c(C)ccc5[nH]ncc45)c3C#N)C2)C1 (stereo not shown) [Compound I-41, 2-(2-acryloyl-2,6-diazaspiro[3.4]octan-6-yl)-6-(5-methyl-1H-indazol-4-yl)-4-(7-methyl-2,7-diazaspiro[4.4]nonan-2-yl)benzonitrile]	+++ (+++ indicates binding activity greater than 75%)
Cc1ccc2[nH]ncc2c1-c1c(F)ccc(N2CCC3(CN(C(=O)/C=C/CN(C)C)C3)C2)c1C#N [Compound I-46, (E)-6-(2-(4-(dimethylamino)but-2-enoyl)-2,6-diazaspiro[3.4]octan-6-yl)-3-fluoro-2-(5-methyl-1H-indazol-4-yl)benzonitrile]	+ (+ indicates binding activity greater than 0% and up to 50%)
Cc1ccc2cnn(C)c2c1-c1c(F)ccc(N2CCC3(CN(C(=O)/C=C/CN(C)C)C3)C2)c1C#N [Compound I-47, (E)-2-(1,6-dimethyl-1H-indazol-7-yl)-6-(2-(4-(dimethylamino)but-2-enoyl)-2,6-diazaspiro[3.4]octan-6-yl)-3-fluorobenzo-nitrile]	+ (+ indicates binding activity greater than 0% and up to 50%)
C=CC(=O)N1CCC2(C1)CN(c1cc(OCc3ccccn3)cc(-c3c(C)ccc4[nH]ncc34)c1C#N)C2 [Compound I-48, 2-(6-acryloyl-2,6-diazaspiro[3.4]octan-2-yl)-6-(5-methyl-1H-indazol-4-yl)-4-(pyridin-2-ylmethoxy) benzonitrile]	+ (+ indicates binding activity greater than 0% and up to 50%)
CC#CC(=O)N1CCC2(C1)CN(c1cc(OCc3ccccn3)cc(-c3c(C)ccc4[nH]ncc34)c1C#N)C2 [Compound I-49, 2-(6-(but-2-ynoyl)-2,6-diazaspiro[3.4]octan-2-yl)-6-(5-methyl-1H-indazol-4-yl)-4-(pyridin-2-ylmethoxy) benzonitrile]	+ (+ indicates binding activity greater than 0% and up to 50%)
CC#CC(=O)N1CC2(CCN(c3cc(OCc4ccccn4)cc(-c4c(C)ccc5[nH]ncc45)c3C#N)CC2)C1 [Compound I-51, 2-(2-(but-2-ynoyl)-2,7-diazaspiro[3.5]nonan-7-yl)-6-(5-methyl-1H-indazol-4-yl)-4-(pyridin-2-ylmethoxy) benzonitrile]	+ (+ indicates binding activity greater than 0% and up to 50%)

same assay, conditions: tested at a concentration of 8 μM

SMILES	Bind %
C=CC(=O)N1CC2(CCN(c3ccc(F)c(-c4c(C)ccc5[nH]ncc45)c3C#N)C2)C1 [Compound I-29, 6-(2-acryloyl-2,6-diazaspiro[3.4]octan-6-yl)-3-fluoro-2-(5-methyl-1H-indazol-4-yl)benzonitrile]	+++ (+++ indicates binding activity greater than 75%)
C=CC(=O)N1CC2(CCN(c3cc(N4CCN(C)C(=O)C4)cc(-c4c(C)ccc5[nH]ncc45)c3C#N)C2)C1 [Compound I-30, 2-(2-acryloyl-2,6-diazaspiro[3.4]octan-6-yl)-6-(5-methyl-1H-indazol-4-yl)-4-(4-methyl-3-oxopiperazin-1-yl)benzonitrile]	++ (++ indicates binding activity from 50 to 75%)
C=CC(=O)N1CC2(CCN(c3cc(N4CCCC(O)C4)cc(-c4c(C)ccc5[nH]ncc45)c3C#N)C2)C1 (stereo not shown) [Compound I-31, 2-(2-acryloyl-2,6-diazaspiro[3.4]octan-6-yl)-4-(3-hydroxypiperidin-1-yl)-6-(5-methyl-1H-indazol-4-yl)benzonitrile]	+++ (+++ indicates binding activity greater than 75%)
C=CC(=O)N1CC2(CCN(c3cc(N4CCC(CN(C)C)CC4)cc(-c4c(C)ccc5[nH]ncc45)c3C#N)C2)C1 [Compound I-32, 2-(2-acryloyl-2,6-diazaspiro[3.4]octan-6-yl)-4-(4-((dimethylamino)methyl)piperidin-1-yl)-6-(5-methyl-1H-indazol-4-yl)benzonitrile]	+++ (+++ indicates binding activity greater than 75%)
C=CC(=O)N1CC2(CCN(c3cc(N4CCCC(N(C)C)C4)cc(-c4c(C)ccc5[nH]ncc45)c3C#N)C2)C1 (stereo not shown) [Compound I-33, 2-(2-acryloyl-2,6-diazaspiro[3.4]octan-6-yl)-4-(3-(dimethylamino)piperidin-1-yl)-6-(5-methyl-1H-indazol-4-yl)benzonitrile]	+++ (+++ indicates binding activity greater than 75%)
Cc1ccc2[nH]ncc2c1-c1cc(N2CCOCC2)cc(N2CCC3(CN(C(=O)/C=C/CN(C)C)C3)C2)c1C#N [Compound I-34, (E)-2-(2-(4-(dimethylamino)but-2-enoyl)-2,6-diazaspiro[3.4]octan-6-yl)-6-(5-methyl-1H-indazol-4-yl)-4-morpholino-benzonitrile]	+ (+ indicates binding activity greater than 0% and up to 50%)
C=CC(=O)N1CC2(CCN(c3cc(OCCCN(C)C)cc(-c4c(C)ccc5cnn(C)c45)c3C#N)C2)C1 [Compound I-35, 2-(2-acryloyl-2,6-diazaspiro[3.4]octan-6-yl)-6-(1,6-dimethyl-1H-indazol-7-yl)-4-(3-(dimethylamino)propoxy) benzonitrile]	++ (++ indicates binding activity from 50 to 75%)
C=CC(=O)N1CC2(CCN(c3ccc(OC)c(-c4c(C)ccc5[nH]ncc45)c3C#N)C2)C1 [Compound I-37, 6-(2-acryloyl-2,6-diazaspiro[3.4]octan-6-yl)-3-methoxy-2-(5-methyl-1H-indazol-4-yl)benzonitrile]	+ (+ indicates binding activity greater than 0% and up to 50%)
C=CC(=O)N1CC2(CCN(c3cc(N4CCC(N5CCN(C)[C@H](C)C5)CC4)cc(-c4c(C)ccc5[nH]ncc45)c3C#N)C2)C1 [Compound I-38, 2-(2-acryloyl-2,6-diazaspiro[3.4]octan-6-yl)-4-(4-((R)-3,4-dimethyl-piperazin-1-yl)piperidin-1-yl)-6-(5-methyl-1H-indazol-4-yl)benzonitrile]	+++ (+++ indicates binding activity greater than 75%)
C=CC(=O)N1CC2(CCN(c3cc(N4CCC(N5CCN(C)CC5)CC4)cc(-c4c(C)ccc5[nH]ncc45)c3C#N)C2)C1 [Compound I-39, 2-(2-acryloyl-2,6-diazaspiro[3.4]octan-6-yl)-6-(5-methyl-1H-indazol-4-yl)-4-(4-(4-methylpiperazin-1-yl)piperidin-1-yl)benzonitrile]	+++ (+++ indicates binding activity greater than 75%)
C=CC(=O)N1CC2(CCN(c3cc(OC[C@@H]4CCCN4C)cc(-c4c(C)ccc5cnn(C)c45)c3C#N)C2)C1 [Compound I-40, 2-(2-acryloyl-2,6-diazaspiro[3.4]octan-6-yl)-6-(1,6-dimethyl-1H-indazol-7-yl)-4-(((S)-1-methylpyrrolidin-2-yl)methoxy) benzonitrile]	+++ (+++ indicates binding activity greater than 75%)
C=CC(=O)N1CC2(CCN(c3cc(OCc4ccccn4)cc(-c4c(C)ccc5[nH]ncc45)c3C#N)CC2)C1 [Compound I-50, 2-(2-acryloyl-2,7-diazaspiro[3.5]nonan-7-yl)-6-(5-methyl-1H-indazol-4-yl)-4-(pyridin-2-ylmethoxy) benzonitrile]	+ (+ indicates binding activity greater than 0% and up to 50%)
